According to US8778882B2, “Agent for strengthening calcium containing tissue and use thereof” (Hayashibara Co., Ltd., priority 2002, dated 2014):

How the values were obtained:
Assay type in all cases: cell-based
[1] = test system: mouse pre-osteoblastic cell MC3T3-E1; experiment: Alkaline phosphatase activity in mouse pre-osteoblastic cells; details: for activity at 20 µM: Mus musculus
Protocol: To increase number of osteoblastic cells having calcium-deposition activity is important for increasing bone mass. […] The activity is at low level in pre-osteoblastic cells and at high level in osteoblastic cells differentiated form the pre-osteoblastic cells. […] Since final ethanol concentration in the medium is 0.2% (v/v), α-MEM medium containing 0.2% (v/v) ethanol was prepared as a negative control. The cells were inoculated for eight days as changing the medium therewith to fresh medium with or without each sample per three days. Alkaline phosphatase activity was measured using “Alkaline Phospha B-Test Wako” (commercialized by Wako Pure Chemical Industries, Osaka, Japan) according with Kajii et al (Archives of Oral Biology, Vol. 44, pp. 233-241, (1999)). Briefly, to the above described mouse pre-osteoblastic cells washed with 1 ml of 0.25 M sucrose solution three times after removing the medium were added 0.45 ml of 50 mM carbonate salt buffer (pH9.8) containing 1 mM magnesium chloride and 50 mM sucrose and 0.05 ml of 3.4 mM disodium p-nitrophenyl phosphate in due course. The mixture was incubated at 25° C. for five minutes and admixed with 1.5 ml of 0.6N sodium hydroxide as a reaction terminator. Absorbance 405 nm of p-nitrophenol generated by alkaline phosphatase in the resulting mixture was measured, and the obtained values were used as values as alkaline phosphatase activity. […] The experiment was performed by the method according to Experiment 1 except that culture day in the medium containing each sample was three, six or nine, and concentration of each sample was 5, 10 or 20 μM. […] As a negative control, mediums containing ethanol in the above concentration were prepared for calculating relative activity to the activity of each control.

[2] = test system: Mouse MC3T3-E1 cells; experiment: Calcium deposition by alizarin red-S staining; set-up: key: +: same strength of red color as a negative control (only medium containing 0.2% (v/v) ethanol); ++: half strength of the positive control; +++: same strength of red color as a positive control (indomethacin); details: MC3T3-E1, 20 mM each compound (so in the source), eight days, alizarin red-S red color judgement
Source text: Following Experiment 1 which investigates differentiating pre-osteoblastic cells into osteoblastic cells, some of organic compounds were investigated whether they actually enhance calcium deposition or not. Indomethacin (commercialized by Funakoshi, Co., Ltd., Tokyo, Japan) (positive control), kaempferol (commercialized by Funakoshi, Co., Ltd., Tokyo, Japan), hesperetin (commercialized by Funakoshi, Co., Ltd., Tokyo, Japan), gallic acid (commercialized by Nacalai Tesque, Kyoto, Japan), and coffeic acid (commercialized by Wako Pure Chemical Industries, Osaka, Japan) were selected as organic compounds. Mouse MC3T3-E1 cells were treated with 20 mM each above compound dissolved in 1 ml of α-MEM medium supplemented with 10% (v/v) fetal calf serum and containing 10 mM β-glycerophosphate. Since final ethanol concentration in the medium is 0.2% (v/v), α-MEM medium containing 0.2% (v/v) ethanol was prepared as a negative control. The cells were inoculated for eight days as changing the medium therewith to fresh medium with or without each sample per three days. The cells were applied to measure calcium deposition therein by usual alizarin red-S staining method. Briefly to the cells washed with 1 ml of Dulbecco phosphate buffer saline twice after removing the medium were added 1 ml of 50 (v/v) % ethanol aqueous solution and incubated for 10 minutes. After removing the 50 (v/v) % ethanol aqueous solution, the cells were incubated with 1 ml of distilled water for 10 minutes. After removing the water, the cells were applied with 1 ml of 1% (w/v) alizarin red-S solution, incubated for 10 minutes, and washed with 1 ml of distilled water for three times after removing alizarin red-S solution. Then, the calcium deposition amount was measured in a manner of judging red color on the plate bottom since deposited calcium was stained by the above treatment. The judgement criterion “+” means same strength of red color as a negative control (only medium containing 0.2% (v/v) ethanol), “+++” means same strength of red color as a positive control (indomethacin), and “++” means half strength of the positive control.

[3] = test system: mouse pre-osteoblastic cell MC3T3-E1; experiment: Calcium deposition amount by Calcium C Test Wako; details: Mus musculus, MC3T3-E1; flavonoid comparison, Calcium C Test Wako, relative to 0.2% (v/v) ethanol negative control
Source text: Other flavonoid compounds than kaempferol or hesperetin were investigated where they have the same effect or not. Flavone (commercialized by Kanto Kagaku, Tokyo, Japan), apigenin (commercialized by Funakoshi, Co., Ltd., Tokyo, Japan), flavonol (commercialized by Tokyo Kasei Kogyo, Co., Ltd., Tokyo, Japan), quercetin (commercialized by Kanto Kagaku, Tokyo, Japan), kaempferol (commercialized by Funakoshi, Co., Ltd., Tokyo, Japan), rutin (commercialized by Kanto Kagaku, Tokyo, Japan), flavanone (commercialized by Kanto Kagaku, Tokyo, Japan), naringenin (commercialized by Ardrich Corporation), hesperetin (commercialized by Funakoshi, Co., Ltd., Tokyo, Japan), hesperidin (commercialized by Kanto Kagaku, Tokyo, Japan), chalcone (commercialized by Merk Corporation), fuloretin (commercialized by Sigma Corporation), catechin (commercialized by Sigma Corporation), ipriflavone (commercialized by Daito Corporation, Toyama, Japan), taxifolin (commercialized by Funakoshi, Co., Ltd., Tokyo, Japan), sulfuretin (commercialized by Funakoshi, Co., Ltd.; Tokyo, Japan), or cyanidin (commercialized by Funakoshi, Co., Ltd., Tokyo, Japan) was selected as test samples. Alkaline phosphatase activity was measured by the method of Experiment 1. Calcium deposition was measured by usual method using “Calcium C Test Wako” (commercialized by Wako Pure Chemical Industries, Osaka, Japan), briefly, cultured cells were washed with 1 ml of Dulbecco phosphate buffer saline three times after removing the medium. To the resultant was added 0.5 ml of 2N hydrochloric acid to resolve deposited calcium. To 5 μl of the resultant solution were added 0.5 ml of 0.88M monoethanolamine buffer (pH11) and 0.05 ml of 0.63 mM o-cresolphthalein complexone solution (binding to calcium ion to form chelate complex) containing 69 mM 8-quinolinol and mixed. Calcium amount per one hole of the plate was calculated by measuring absorbance 570 nm of the resultants and standardizing with a standard calcium solution. The judgement of alkaline phosphatase activity or calcium deposition amount of each sample was to calculate the relative activity or the relative calcium deposition amount to the negative control (only medium containing 0.2% (v/v) ethanol) and to compare each other.
The enhancement of calcium deposition between kaempferol and ipripfavone were compared. Test samples and their adding manner were same as Experiment 4. Calcium deposition amount was measured by usual method using “Calcium C Test Wako” (commercialized by Wako Pure Chemical Industries, Osaka, Japan); briefly, cultured cells were washed with 1 ml of Dulbecco phosphate buffer saline three times after removing the medium. To the resultant was added 0.5 ml of 2N hydrochloric acid to resolve deposited calcium. To 5 μl of the resolving solution were added 0.5 ml of 0.88M monoethanolamine buffer (pH11) and 0.05 ml of 0.63 mM o-cresolphthalein complexone solution (binding to calcium ion to form chelate complex) containing 69 mM 8-quinolinol and mixed, Calcium amount per one hole of the plate was calculated by measuring absorbance 570 nm of the resultants and standardizing with a standard calcium solution.
Kaempferol or hesperetin in combination with ipriflavone, or a kind of isoflavones, was investigated whether to enhance calcium deposition or not. Methods for preparing samples and culturing the cells were the same method described in Experiment 1 except culturing the cells for five days, Method for measuring calcium was the same method described in Experiment 3 and 5. Final ethanol concentration of the medium containing each sample was adjusted as same concentration.

[4] = 192 h, MC3T3-E1, 20 mM each compound (so in the source), eight days, relative to 0.2% (v/v) ethanol negative control

O=C(O)/C=C/c1ccc(O)c(O)c1 [Coffeic Acid, coffeic acid]
Relative Alkaline Phosphatase Activity (%) ([1]; MC3T3-E1, 20 mM each compound (so in the source), eight days, relative to 0.2% (v/v) ethanol negative control): 97% | Calcium Deposition Amount [2]: +

O=C(O)c1cc(O)c(O)c(O)c1 [Gallic Acid, gallic acid]
activity at 20 µM [1, 4]: 79% | Calcium Deposition Amount [2]: +

COc1ccc2c(c1)c(CC(=O)O)c(C)n2C(=O)c1ccc(Cl)cc1 [Indomethacin, indomethacin, reference compound]
activity at 20 µM [1, 4]: 142% | Calcium Deposition Amount [2]: +++

O=c1c(O)c(-c2ccc(O)cc2)oc2cc(O)cc(O)c12 [Kaempferol]
activity at 20 µM [1, 4]: 162% | activity at 20 µM ([1]; MC3T3-E1, flavonoid comparison, method of Experiment 1, relative to 0.2% (v/v) ethanol negative control): 162% | Calcium Deposition Amount [2]: +++ | activity at 20 µM [3]: 305%
